Data from US7943568B2, “Antitumor agents” (The Ohio State University Research Foundation, priority 2005, dated 2011).
“Also recorded” adds a separate entry of the source. Where a name gives a salt, the structure may show the parent alone. Read-outs that look alike come from different tables or passages of the source. Blank lines part the entries; values can stand above or below the molecule they belong to.

What was measured:
[1] = Distribution of FK228 and metabolites between plasma and RBC after rat whole blood incubation; type: in vitro ADME, rat; details: for detection in RBC cytosol / homogenate / detection in plasma fraction: FK228 100 μg/mL, rat whole blood, 37° C., 60 min
Protocol: After centrifugation, the plasma was removed and the RBC fraction was washed 8 times with 2 mL saline each. […] The RBC debris was further washed with 1 mL acetonitrile each 8 times.
The blood was centrifuged to remove plasma. To the RBC fraction was added blank rat plasma to restore the initial volume, and the mixture was homogenized by a glass tissue grinder (400 strokes). The plasma and RBC homogenates were analyzed by ESI ion-trap LC-MS. A Waters Spherisorb S3 ODS1 column (2 mm ID×10 cm, particle 5 μm, Waters Corporation, Milford, Mass., USA) with a gradient elution was used. The gradient was initiated with 25% acetonitrile in 0.1% acetic acid for 5 minutes, followed by a linear increase to 70% acetonitrile over 5 minutes, which was kept constant for 15 minutes. The mobile phase was then returned linearly to the original condition over 3 minutes, which was then maintained for 7 minutes. The cycle time for each analysis was 35 minutes.

[2] = Formation kinetics of FK228 metabolites in rat plasma containing 10 mM GSH; type: in vitro ADME; details: for time to plateau or maximum concentration: FK228 100 μg/mL, 37° C.; for half-life at 100 μg/mL: rat, plasma
From the text: Serial samples were removed at pre-selected time points up to […]. FK228 and its major metabolites were monitored by ESI LC_MS on the API instrument.

Pgp [3] = target: T1, Pgp (Homo sapiens, UniProt P08183); details: multiple cellular models
Pgp [4] = target: T1, Pgp; details: earlier finding; cited from earlier work
[5] = In vitro rat blood distribution / RBC uptake of FK228
[6] = Tissue distribution and dose recovery (mass balance) of FK228 in the rat; type: in vivo; details: for dose excreted: male, Sprague-Dawley, intravenous
Protocol: (§1) Pharmacokinetics and tissue distribution studies in the rat Twenty-three male S.D. rates weighing 250-300 g were divided into 5 groups. All rats were cannulated by the left jugular vein under ketamine anesthesia (im, 100 mg/kg) for drug administration and/or blood sampling. The rats were kept in metabolism cages and allowed to recover overnight with food and water given ad libitum. The animal protocols were approved by the Institutional Laboratory Animal Care and Use Committee (ILACUC) of the Ohio State University Laboratory Animal Resources (ULAR), and adhered to the guideline and “Principles of Laboratory Animal Care” by National Institutes of Health (NIH).
(§2) At the time schedule of predose, 5, 10, 20, […], 60, 120, 180, 300 minutes after doing, blood samples of 0.2 mL each were withdrawn from the same cannula with an equal volume of normal saline. Plasma was separated immediately by centrifugation (10,000 g×0.5 min.) extracted with 10-volume ethyl acetate. After centrifugation, the organic layer was transferred into a clean conical Falcon polypropylene tube, and evaporated under a stream of nitrogen. […] Weighed wet organ tissue samples were homogenized in appropriate volumes of blank human plasma with an Ultra-Turrax SDT1610 electric homogenizer (Tekmar, Cincinnati, Ohio) at the highest speed setting for 10 seconds 4 times. […] The homogenates were then extracted and determined as in plasma samples (Chan, et al. 1997; Li and Chan, 2000). Feces samples were homogenized similarly as above. After centrifugation, the supernatant was extracted and determined as plasma samples.
(§3) A 2 mm×50 mm Keystone BetaBasic-C8 column (Keystone, Bellefonte, Pa.) and an isocratic elution were used with the mobile phase consisting of 70% acetonitrile and 0.1% acetic acid at a flow rate of 0.2 mL/min. The flow leaving the HPLC column was split in a ratio of 20:1, with only 10 μL/min. entering the mass spectrometer. All samples were determined by individual calibration curves using specific blank sample matrix. […] While the recoveries from rat muscle and fat samples were further normalized to whole body weight assuming the muscle and fat compose 40 and 4% of the rat total body weight, respectively (Davies and Morris, 1993).

[7] = patients, 4-hour infusion; cited from earlier work
[8] = Rat pharmacokinetics of FK228; type: in vivo; details: for AUC(0-inf) / Cmax / MRT / clearance / Vd: male, Sprague-Dawley, plasma, iv; for clearance: read-out: Cltotal; for Vd: read-out: Vdss
Protocol: as §1, §2, §3

[9] = target: multidrug resistant-associated protein 1 (MRP1) (Homo sapiens, UniProt P33527); details: multiple cellular models
[10] = FK228 stability and protein binding in human plasma; type: in vitro ADME
[11] = i.v. bolus, for 250 g rats; cited from earlier work
HDAC = system: T2, HDAC; type: biochemical; details: for IC50: n=3, read-out: IC50, HDAC inhibitory activity; for times more potent as HDAC inhibitors than FK228: relative to FK228
T2 construct: other: n=3; other: relative to FK228
Protocol: To the plasma was added 2 mL acetonitrile to precipitate the proteins. After centrifugation, the acetonitrile layer was transferred to a clean Falcon polypropylene tube and evaporated to dryness under a stream of nitrogen. […] Their HDAC inhibitory activities were assayed by using the Fluor de Lys HDAC Fluorescent Activity Assay/Drug Discovery Kit (BioMol, Plymouth Meeting, Pa.).

RBC GSH = RBC GSH depletion by DEM pretreatment in the rat; type: in vivo
[12] = rat plasma containing 10 mM GSH
[13] = 2 mg/kg, I.v. bolus (n = 6), 2 mg/kg
[14] = I.v. bolus with CsA pretreatment (n = 3)
[15] = I.v. bolus with DEM pretreatment (n = 5)
[16] = after 1 hour whole blood incubation at 37° C.

T1 sequence (P08183 whole entry): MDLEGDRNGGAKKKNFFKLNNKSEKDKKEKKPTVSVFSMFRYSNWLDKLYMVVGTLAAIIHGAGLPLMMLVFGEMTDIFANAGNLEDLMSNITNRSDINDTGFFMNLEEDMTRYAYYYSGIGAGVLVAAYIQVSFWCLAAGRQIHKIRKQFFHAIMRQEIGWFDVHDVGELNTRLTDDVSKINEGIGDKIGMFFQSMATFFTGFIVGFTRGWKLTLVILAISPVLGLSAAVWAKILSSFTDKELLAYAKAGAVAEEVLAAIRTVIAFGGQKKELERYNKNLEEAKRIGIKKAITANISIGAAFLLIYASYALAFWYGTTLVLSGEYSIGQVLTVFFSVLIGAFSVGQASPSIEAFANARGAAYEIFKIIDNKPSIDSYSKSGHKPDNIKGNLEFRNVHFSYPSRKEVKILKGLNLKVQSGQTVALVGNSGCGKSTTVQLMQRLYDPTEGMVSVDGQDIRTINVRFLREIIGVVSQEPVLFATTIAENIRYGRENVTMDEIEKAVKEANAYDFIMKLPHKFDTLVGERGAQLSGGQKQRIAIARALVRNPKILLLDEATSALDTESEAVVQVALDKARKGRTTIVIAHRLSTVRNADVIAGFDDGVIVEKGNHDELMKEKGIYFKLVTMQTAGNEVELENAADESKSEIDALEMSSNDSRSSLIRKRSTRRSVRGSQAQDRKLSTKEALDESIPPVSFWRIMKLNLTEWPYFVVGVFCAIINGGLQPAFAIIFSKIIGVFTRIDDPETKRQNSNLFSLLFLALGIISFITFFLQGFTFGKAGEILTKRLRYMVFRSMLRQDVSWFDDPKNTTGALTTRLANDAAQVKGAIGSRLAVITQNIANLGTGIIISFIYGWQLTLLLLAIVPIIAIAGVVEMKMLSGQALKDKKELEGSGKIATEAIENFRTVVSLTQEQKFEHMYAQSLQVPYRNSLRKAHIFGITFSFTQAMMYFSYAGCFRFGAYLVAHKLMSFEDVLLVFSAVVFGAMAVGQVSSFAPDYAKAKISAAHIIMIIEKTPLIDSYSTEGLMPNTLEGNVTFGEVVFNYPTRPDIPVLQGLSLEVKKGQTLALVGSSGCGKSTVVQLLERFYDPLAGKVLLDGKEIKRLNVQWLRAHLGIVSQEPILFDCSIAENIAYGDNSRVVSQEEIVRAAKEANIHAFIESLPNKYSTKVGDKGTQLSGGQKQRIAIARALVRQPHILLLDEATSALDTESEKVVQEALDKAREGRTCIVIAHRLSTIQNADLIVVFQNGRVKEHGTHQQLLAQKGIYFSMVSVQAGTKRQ
Sequence of multidrug resistant-associated protein 1 (MRP1) (P33527 whole entry): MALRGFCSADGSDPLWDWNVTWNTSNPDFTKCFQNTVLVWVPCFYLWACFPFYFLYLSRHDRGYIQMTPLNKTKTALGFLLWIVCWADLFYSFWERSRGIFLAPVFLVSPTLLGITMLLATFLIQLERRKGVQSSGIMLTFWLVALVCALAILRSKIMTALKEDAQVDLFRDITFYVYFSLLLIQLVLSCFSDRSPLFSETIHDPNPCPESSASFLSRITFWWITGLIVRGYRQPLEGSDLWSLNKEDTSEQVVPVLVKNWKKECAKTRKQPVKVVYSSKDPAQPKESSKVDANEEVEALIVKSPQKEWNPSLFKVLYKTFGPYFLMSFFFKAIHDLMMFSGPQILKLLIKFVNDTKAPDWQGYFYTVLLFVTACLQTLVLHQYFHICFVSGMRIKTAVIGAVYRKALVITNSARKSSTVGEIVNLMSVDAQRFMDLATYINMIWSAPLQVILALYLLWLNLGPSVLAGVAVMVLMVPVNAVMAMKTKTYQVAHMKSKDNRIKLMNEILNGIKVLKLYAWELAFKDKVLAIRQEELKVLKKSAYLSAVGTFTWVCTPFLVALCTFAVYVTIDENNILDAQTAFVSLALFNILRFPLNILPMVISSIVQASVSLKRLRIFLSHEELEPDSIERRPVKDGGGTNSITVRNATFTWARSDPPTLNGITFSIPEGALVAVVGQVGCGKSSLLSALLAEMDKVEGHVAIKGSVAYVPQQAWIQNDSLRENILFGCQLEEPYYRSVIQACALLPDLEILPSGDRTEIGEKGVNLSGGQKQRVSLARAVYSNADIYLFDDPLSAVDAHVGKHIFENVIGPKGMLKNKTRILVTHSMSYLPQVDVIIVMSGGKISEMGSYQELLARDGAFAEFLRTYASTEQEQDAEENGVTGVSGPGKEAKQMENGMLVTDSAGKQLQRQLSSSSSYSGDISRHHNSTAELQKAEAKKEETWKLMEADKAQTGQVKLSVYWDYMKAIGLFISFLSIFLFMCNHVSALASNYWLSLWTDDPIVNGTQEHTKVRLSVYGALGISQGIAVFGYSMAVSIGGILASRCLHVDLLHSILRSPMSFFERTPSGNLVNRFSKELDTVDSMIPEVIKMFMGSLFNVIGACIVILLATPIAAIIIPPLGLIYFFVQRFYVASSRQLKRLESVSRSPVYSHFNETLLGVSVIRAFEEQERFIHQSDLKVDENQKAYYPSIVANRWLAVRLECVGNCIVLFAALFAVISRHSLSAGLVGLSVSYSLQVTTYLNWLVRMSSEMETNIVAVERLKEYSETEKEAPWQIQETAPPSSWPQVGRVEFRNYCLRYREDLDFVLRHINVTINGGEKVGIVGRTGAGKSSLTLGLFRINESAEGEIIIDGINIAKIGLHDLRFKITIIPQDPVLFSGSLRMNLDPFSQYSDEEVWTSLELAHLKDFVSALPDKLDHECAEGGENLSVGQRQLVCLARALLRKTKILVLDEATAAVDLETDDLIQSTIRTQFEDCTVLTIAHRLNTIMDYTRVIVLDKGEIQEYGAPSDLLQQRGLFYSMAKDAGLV

Structure (SMILES): CC(C)C1NC(=O)CC2/C=C/CCSSCC(NC1=O)C(=O)NC(C(C)SCC(NC(=O)CCC(N)C(=O)O)C(=O)NCC(=O)O)C(=O)NC(C(C)C)C(=O)O2 (centres unmarked) [metabolite E]
detection in RBC cytosol / homogenate [1]: detected; also recorded: minor peak | detection in plasma fraction [1]: minor peak | time to plateau or maximum concentration [2, 12]: 2 h

Structure (SMILES): C/C=C1\NC(=O)[C@H]2CSSCC/C=C/[C@H](CC(=O)N[C@H](C(C)C)C(=O)N2)OC(=O)[C@H](C(C)C)NC1=O [FK228, (E)-(1S,4S,10S,21R)-7-[(Z)-ethylidene]-4,21-diisopropyl-2-oxz-12,13-dithia-5,8,20,23-tetraazabicyclo[8,7,6]-tricos-16ene-3,6,9,19,22-pentanone]
Pgp substrate (Pgp [3]): substrate | P-glycoprotein substrate (Pgp [4]): substrate | recovery at 1 h, 10 μg/mL ([5]; male, Sprague-Dawley, rat, fresh heparinized whole blood): < 35% | plasma FK228 remaining ([5]; rat blood at 37° C., within 2 minutes, 0.1-10 μg/mL): over 20% | total amount of FK228 in 24-hour urine and 6-hour bile [6]: less than 11 % of the dose | total recovery of intact FK228 from 9 major organ tissues ([6]; 6 hours): 2.5±1.26% | total recovery of intact FK228 from 9 major organ tissues ([6]; 24 hours): 0.56±0.3% | dose excreted ([6]; bile, n=3, read-out: dose recovery from 6 hour bile): 4.76 ± 0.34% | dose excreted ([6]; urine, 2 mg/kg, n=6, read-out: dose recovery from 24 hour urine): 5.9 ± 1.6% | maximum tolerated dose (MTD) [7]: 17.8 mg/m^2 | plasma FK228 concentrations ([8]; following i.v. infusion): < 20 nM | AUC(0-inf) ([8]; 2 mg/kg, I.v. bolus (n = 6)): 0.0683 µM·h | Cmax ([8]; 2 mg/kg, I.v. bolus (n = 6)): 490 ± 164 nM | MRT ([8]; 2 mg/kg, I.v. bolus (n = 6)): 36.3 min | clearance [8, 13]: 237 ± 58 mL/min | Vd [8, 13]: 32.7 ± 4.51 L/kg | Cmax ([8]; 2 mg/kg, I.v. infusion (n = 6)): 25.3 ± 3.7 nM | MRT ([8]; 2 mg/kg, I.v. infusion (n = 6)): 17.7 min | Vd ([8]; 2 mg/kg, I.v. infusion (n = 6)): 10.8 ± 2.7 L/kg | AUC(0-inf) [8, 14]: 0.0667 µM·h | Cmax [8, 14]: 548 ± 249 nM | MRT [8, 14]: 27 min | clearance [8, 14]: 249 ± 18 mL/min | Vd [8, 14]: 29 ± 3.2 L/kg | AUC(0-inf) [8, 15]: 0.0903 µM·h | MRT [8, 15]: 30 min | Cmax ([8]; I.v. bolus with DEM pretreatment (n = 5), called C0 in text): 1180 ± 637 nM | clearance [8, 15]: 276 ± 152 mL/min | Vd [8, 15]: 22.4 ± 13 L/kg | AUC(0-inf) ([8]; I.v. infusion (n = 6)): 0.103 µM·h | clearance ([8]; I.v. infusion (n = 6)): 179 ± 27.5 mL/min | Vd ([8]; I.v. infusion (n = 6)): 11.8 ± 2.7 L/kg | MRP1 substrate [9]: substrate | binding to plasma proteins [10]: over 90% | stability [10]: stable | distribution volume [11]: 22.3 ± 7.3 L/kg | total body clearance [11]: 425.3 ± 117.7 mL/min

Structure (SMILES): C/C=C1\NC(=O)C(CS)NC(=O)C(C(C)C)NC(=O)CC(/C=C/CCS)OC(=O)C(C(C)C)NC1=O (centres unmarked) [metabolite A]
fate in rat RBC [1]: pumped out of rat RBC | half-life at 100 μg/mL [2]: 18.5 min | IC50 (HDAC): 1.65 ± 0.24 nM | times more potent as HDAC inhibitors than FK228 (HDAC): at least 46 times

Structure (SMILES): CC(C)C1NC(=O)CC(/C=C\CCSSCC(NC(=O)CCC(N)C(=O)O)C(=O)NCC(=O)O)OC(=O)C(C(C)C)NC(=O)C2NC(=O)C(CSC2C)NC1=O (centres unmarked) [metabolite D]
detection in RBC cytosol / homogenate [1]: detected | detection in plasma fraction [1]: detected | fate in rat RBC [1, 16]: remained in rat RBC | time to plateau or maximum concentration [2, 12]: 1 h | IC50 (HDAC): 15.9 ± 2.7 nM

detection in plasma fraction [1]: detected | fate in rat RBC [1, 16]: pumped out of rat RBC
Structure (SMILES): CC(C)C1NC(=O)CC(/C=C/CCS)OC(=O)C(C(C)C)NC2(O)SCC(NC1=O)C(=O)NC2C(C)SCC(NC(=O)CCC(N)C(=O)O)C(=O)NCC(=O)O (centres unmarked) [metabolite F]

Structure (SMILES): CC(C)C1NC(=O)CC(/C=C/CCS)OC(=O)C(C(C)C)NC(=O)C2NC(=O)C(CSC2C)NC1=O (centres unmarked) [metabolite B]
detection in RBC cytosol / homogenate [1]: detected | detection in plasma fraction [1]: detected | fate in rat RBC [1, 16]: remained in rat RBC | stability of metabolite ([2]; rat plasma containing 10 mM GSH, in words): instable | half-life at 100 μg/mL ([2]; read-out: terminal half life): 14.4 min | IC50 (HDAC): 0.94 ± 0.14 nM | times more potent as HDAC inhibitors than FK228 (HDAC): ≥ 82 times

Structure (SMILES): CCOC(=O)/C=C\C(=O)OCC [DEM, diethyl maleate]
depletion of RBC GSH (RBC GSH): 50%
